Laboratory results taken from patent publication US9011833B2, “Vitamin E formulations of sulfamide NS3 inhibitors” (priority 2010, dated 2015).
≈ marks a conversion by molar mass, not a printed value.

Key:
[1] = physchem; conditions: aqueous buffer, Compound 34 solubility
[2] = in vivo; design: species or system sprague dowley rats; conditions: Sprague-Dawley, rat
[3] = Solubilization of Compound 34 in microemulsion formulation; assay type: physicochemical; conditions: microemulsion preconcentrate or microemulsion diluted with water
From the text: Microemulsion preconcentrate or diluted microemulsion with water is used. The formulation solubilizes the Compound 34 up to 15% by wt. The specific components for formulation are: […]

For `CC[C@@H]1C[C@]1(NC(=O)[C@@H]1C[C@@]2(CN1C(=O)[C@@H](NC(=O)[C@@H](NC(=O)[C@@H]1CCCCN1C(C)C)C1CCCCC1)C(C)(C)C)C(C)(C)C21CCC1)C(=O)NS(=O)(=O)N1CCCC1` [Compound 34, (5R,8S)-7-[(2S)-2-{[(2S)-2-cyclohexyl-2-({[(2S)-1-isopropylpiperidin-2-yl]carbonyl}amino)acetyl]a-mino}-3,3-dimethylbutanoyl]-N-{(1R,2R)-2-ethyl-1-[(pyrrolidin-1-ylsulfonyl)carbamoyl]cyclo-propyl}-10,10-dimethyl-7-azadispiro[3.0.4.1]decane-8-carboxamide], the solubility [1] was 30 µg/mL (≈ 35 µM), the bioavailability [2] was 80 to 95% and the “solubilized in microemulsion formulation” value [3] was “up to 15 % by wt”.
